Results from patent US12319913B2, “5-halouracil-modified microRNAs and their use in the treatment of cancer” (The Research Foundation for The State University of New York, priority 2018, dated 2025).
[5FU] = 5-fluorouracil base replacing uracil

Assays:
[1] = test system: acute lymphocytic leukemia cell line (REH); experiment: Cell proliferation, REH; assay type: cell-based, human; conditions: compared to negative controls
Method: (§1) For transfections, 1×10^5 cells were plated in six-well plates and transfected with 100 nM of control non-specific miRNA (Thermo Fischer), a modified microRNA, or exogenous native microRNA after 24 hours using Oligofectamine (Thermo Fischer) following the manufacturer's protocols. For reagent free transfection, cells were plated in 6 well plates at (1×10^5) cells per well. Twenty-four hours later 100 pmol miRNA (Control, miR-15a, Mimic-1) were diluted in Optimem (Thermo Fischer) and added to the plate. Media was changed after 24 hours. Media was supplemented with 10% fetal bovine serum (Thermo Fischer). Briefly, cells were cultured in growth media (DMEM/F12 supplemented with B27, 10 ng/mL bFGF, and 20 ng/mL EGF (Life Technologies) in ultra-low attachment flasks) for up to 6 days. The spheroid cells were maintained by collection through gentle centrifugation, dissociation to single cells and replating.
(§2) Cell proliferation assay: Twenty-four hours after transfection, cells were seeded in 96-well plates at a density of 2000 cells per well. The cell proliferation assay was performed on days 1 to 5 by incubating 10 μl WST-1 (Roche Applied Science, Mannheim, Germany) in the culture medium for 1 h and reading the absorbance at 450 and 630 nm. The cell proliferation rate was calculated by subtracting the […]. Experiments for the cell proliferation assay were performed at least three times. The O.D. was calculated by subtracting the absorbance at 630 nm from that at 450 nm. Proliferation experiments were performed three times.

[2] = test system: HCT116 derived colon cancer stem cells; assay type: cell-based
Method: as §1
miR-129 mimics eliminated chemotherapy resistant colon cancer stem cells. To determine the impact of certain exemplary modified microRNAs of the present disclosure (i.e., miR-129 mimics) on 5-FU resistant colon cancer stem cells, HCT116 derived colon cancer stem cells were treated with various concentrations of Mimic-1 or 5-FU.

[3] = test system: HCT-116 cells; experiment: Cell cycle analysis by flow cytometry, colon cancer cells; assay type: cell-based, human
Method: Cell cycle analysis: Twenty-four hours after transfection, cells were harvested and resuspended at 0.5 to 1×10^6 cells/mL in modified Krishan's buffer supplemented with 0.02 mg/mL RNase H and 0.05 mg/mL propidium iodide. Stained cells were detected by flow cytometry and results were analyzed with Modfit LT™ software. The experiments for cell cycle analysis were performed at least three times.

[4] = test system: AGS stomach cancer cells; experiment: Cell proliferation, AGS; assay type: cell-based, human; conditions: compared to negative controls
Method: as §1, §2

[5] = test system: cancer cells; experiment: Real-time qRT-PCR of modified miR entry into cancer cells; assay type: cell-based, human; conditions: quantitative Real-Time PCR
Method: Real-time qRT-PCR analysis of nucleic acid expression. The expression levels of microRNAs in cancer cells were quantified. Briefly, the primers specific to the microRNA of interest and an internal control RNU44 gene were purchased from Ambion. cDNA synthesis was performed by the High Capacity cDNA Synthesis Kit (Applied Biosystems) with miRNA-specific primers. Real-time qRT-PCR was carried out on an Applied Biosystems 7500 Real-Time PCR machine with miRNA-specific primers by TaqMan Gene Expression Assay (Applied Biosystems). Expression level of the exemplary miRs of the present disclosure was calculated by the ΔΔCT method based on the internal control RNU44, normalized to the control group and plotted as relative quantification.

[6] = test system: SW480 colon cancer cells; experiment: WST-1 cell proliferation assay, SW480; assay type: cell-based, human; conditions: SW480, in words, vs controls
Method: as §1, with “The spheroid cells were maintained by collection through gentle centrifugation, dissociation to single cells and replating.” left out
as §2, with “Experiments for the cell proliferation assay were performed at least three times.” left out, “Proliferation experiments were performed three times.” left out

[7] = target: T1, TS-FdUMP (Homo sapiens, UniProt P04818); experiment: Western blot of TS-FdUMP in colon cancer cells; assay type: cell-based; conditions: colon/colorectal cancer cells
T1 construct: endogenous in cells
T1 sequence (P04818 2-313 limits assumed): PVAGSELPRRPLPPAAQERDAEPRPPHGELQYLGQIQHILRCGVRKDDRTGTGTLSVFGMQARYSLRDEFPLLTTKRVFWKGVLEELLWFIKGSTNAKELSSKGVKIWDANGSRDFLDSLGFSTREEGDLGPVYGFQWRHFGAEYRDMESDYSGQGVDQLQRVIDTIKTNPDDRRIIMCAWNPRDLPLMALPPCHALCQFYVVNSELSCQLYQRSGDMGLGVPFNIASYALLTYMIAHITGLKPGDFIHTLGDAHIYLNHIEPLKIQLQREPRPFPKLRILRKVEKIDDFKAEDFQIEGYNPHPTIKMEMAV
Method: (§3) Western immunoblot analysis: Forty-eight hours after transfection, equal amounts of protein (15 μg) extracted from cells lysed in RIPA buffer with protease inhibitor (Sigma) and were separated on 10%-12% sodium dodecyl sulfate-polyacrylamide gels using standard procedures. The primary antibodies used for the analysis were rabbit anti-YAP1 monoclonal antibody (1:10000) (Cell Signaling Technologies), anti-DLCK1 (1:500) (Abcam), anti-BCL2 (1:500) (NeoMarkers), anti-MDC1 (1:500), anti-SUZ12 (1:500), anti-pChk-1 (1:500), anti beta-actin (1:500), anti-BMI-1 (1:10000) (Cell Signaling Technologies), mouse anti-human TS antibody (1:500), anti-α-tubulin (1:50000) (Santa Cruz Biotech Inc.), anti-GAPDH (1:100000) (Santa Cruz Biotech Inc.), anti-E2F3 (1:500) (Santa Cruz Biotech Inc.), Horseradish peroxidase-conjugated antibodies against mouse or rabbit (1:5000, Santa Cruz Biotech Inc.) were used as the secondary antibodies. Protein bands were visualized with autoradiography film using SuperSignal West Pico Chemiluminescent Substrate (Thermo Fischer). Western blot density was quantified using Image J software.

[8] = test system: YAP1, BMI1, DCLK1 and BCL2; experiment: Western blot of miR-15a targets in HCT-116 colon cancer stem cells; assay type: cell-based, human; conditions: three days following transfection
Method: as §3, with “[…],” for “Forty-eight hours after transfection,”, “software. […]” for “software.”

Row | Substance | leukemia cancer cell proliferation [1] | proliferation of HCT116 colon cancer stem cells ([2]; 25 nM, day 6) | elimination of 5-FU resistant colon cancer stem cells ([2]; 100 nM) | killing of 5-FU resistant cancer stem cells, dose dependence ([2]; increasing concentrations, FIG. 6) | G1 arrest, potency relative to native miR-129 ([3]; HCT-116, flow cytometry) | gastric cancer cell proliferation [4] | entry into cancer cells [5] | inhibition of colon cancer cell proliferation [6] | TS-FdUMP break down [7] | protein levels of YAP1, BMI1, DCLK1 and BCL2 [8] | increase in the G1/S ratio ([3]; colon cancer cells, compared to the control)
1 | CU^FU^FU^FU^FU^FGCGGU^FCU^FGGGCU^FU^FGC (CUUUUUGCGGUCUGGGCUUGC; RNA, [5FU] at 2, 3, 4, 5, 6, 11, 13, 18, 19, backbone not given here) [modified miR-129] | inhibited | nearly completely blocked | over 80% | killed 5-FU resistance cancer stem cells in a dose dependent manner | more than two-fold | inhibited | enter cancer cells | inhibition of colon cancer cell proliferation | break downs TS-FdUMP significantly better than 5-FU alone | – | –
2 | U^FAGCAGCACAU^FAAU^FGGU^FU^FU^FGU^FG (UAGCAGCACAUAAUGGUUUGUG; RNA, [5FU] at 1, 11, 14, 17, 18, 19, 21, backbone not given here) [modified miR-15a] | inhibited | – | – | – | – | inhibited | – | – | break downs TS-FdUMP | reduced | 7 fold
